What follows are molecules tested on H358 cells (assay: Cell activity experiment: activity test of H358 cells (MTT, 5 days)). Conditions: 5 days incubation, absorbance 492 nm.
Format: cell-based
Method: Example: Cell Activity Experiment
1. Cells: H358 purchased from Shanghai EK-Bioscience Biotechnology Co., Ltd.
2. Reagents: RPMI 1640 medium, Tryple, MTT (5 mg/mL), DMSO, and DPBS.
3. Instruments: an incubator at 37° C. and 5% CO2, a UTRAO microplate reader, a biosafety cabinet, a cell counting plate, and an Optec optical microscope.
4. Experimental consumables: 96-well plate Item No.: 3599, and 96-well round-bottomed dispensing plate.
Experimental Steps of Activity Test of H358 Cells:
1. Plating: Cells in the logarithmic growth phase were digested with Tryple and terminated with a fresh medium, and the cells were counted; and the cell concentration was adjusted to 55555 cells/mL with a fresh medium, wherein 90 μL was added to each well, and those on edges were filled with sterile DPBS.
2. The plate was incubated in the incubator at 37° C. and 5% CO2 for 24 h, so that the cells cover the bottom of the well by about 50%.
3. Drug preparation for experimental group: The drug was dissolved in DMSO to prepare a 20 mmol/L stock solution; the stock solution was further diluted with DMSO to 2 mmol/L, which was serially 3-fold diluted to form an […]-concentration gradient, resulting in a 200× serial compound solution; 10 μL of the serial compound solution was taken and added to 190 μLμL of RPMI1640 medium to obtain a 10× serial compound solution; and 10 μL of the 10× compound solution was taken and added to 90 μL 96-well cell culture plate, with three replicates per grade. The concentration gradient of the compound in the 96-well cell culture plate was […], 1.524158 nM, 4.572474 nM, 13.717420 nM, 41.152260 nM, 123.456800 nM, 370.370400 nM, 1111.111000 nM, 3333.333000 nM, and 10000.000000 nM, with 100 μL per well, and the final concentration of DMSO was 0.5%.
The control group contained the same volume of solvent as the experimental group and was diluted with a complete medium, with 100 μL per well.
4. Incubation was carried out for 5 days in an incubator with 5% CO2 at 37° C.
5. After 5 days, 10 μL of an MTT solution (5 mg/mL) was added to each well, and the culture was continued for 4 h.
6. The culture was terminated, and the culture solution was carefully sucked out of the well.
7. 150 μL of dimethyl sulfoxide (DMSO) was added to each of the null wells in the experimental group and the control group; and after shaking at a medium speed for 10 s, the crystal was fully dissolved, and the optical absorbance value thereof was measured at a wavelength of 492 nm.

With `C=CC(=O)N1CCN(c2nc(OC[C@@H]3CCCN3C)nc3c(F)c(-c4cccc5c4CCCC5)c(Cl)cc23)C[C@@H]1CC#N` [Example 74] the IC50 was 25 nM.

Same assay, conditions: Homo sapiens, NCI-H358, 120 h, 5 days incubation, absorbance 492 nm

In order of rising IC50:
1. C=CC(=O)N1CCN(c2nc(OC[C@@]34CCCN3C[C@H](F)C4)nc3c(F)c(-c4cccc5c4C4CC4C5)ncc23)C[C@@H]1CC#N (stereo partly drawn) [Example 67]  0.07 nM
2. C=CC(=O)N1CCN(c2nc(OC[C@@]34CCCN3C[C@H](F)C4)nc3c(F)c(-c4cccc5c4[C@@H]4C[C@@H]4C5)ncc23)C[C@@H]1CC#N [Example 71]  0.2 nM
3. C=CC(=O)N1CCN(c2nc(OC[C@@H]3CCCN3C)nc3c(F)c(-c4cccc5c4C4CC4C5)ncc23)C[C@@H]1CC#N (stereo partly drawn) [Example 52, 2-((2S)-1-acryloyl-4-(8-fluoro-2-(((S)-1-methylpyrrolidin-2-yl)methoxy)-7-(1,1a,6,6a-tetrahydrocyclopropa[a]inden-2-yl)pyridino[4,3-d]pyrimidin-4-yl)piperazin-2-yl)acetonitrile]  0.22 nM
4. C=C(F)C(=O)N1CCN(c2nc(OC[C@@]34CCCN3C[C@H](F)C4)nc3c(F)c(-c4cccc5c4C4CC4C5)ncc23)C[C@@H]1CC#N (stereo partly drawn) [Example 68]  0.33 nM
5. C=CC(=O)N1CCN(c2nc(OCC34CCCN3CCC4)nc3c(F)c(-c4cccc5c4C4CC4C5)ncc23)C[C@@H]1CC#N (stereo partly drawn) [Example 61]  0.71 nM
6. C=CC(=O)N1CCN(c2nc(OC[C@@H]3CCCN3C)nc3c(F)c(-c4cccc5c4[C@@H]4C[C@@H]4C5)ncc23)C[C@@H]1CC#N [Example 58, 2-((S)-1-acryloyl-4-(8-fluoro-2-(((S)-1-methylpyrrolidin-2-yl)methoxy)-7-((1aR,6aR)-1,1a,6,6a-tetrahydrocyclopropa[a]inden-2-yl)pyridino[4,3-d]pyrimidin-4-yl)piperazin-2-yl)acetonitrile]  0.81 nM
7. C=CC(=O)N1CCN(c2nc(OC[C@@]34CCCN3C[C@H](F)C4)nc3c(F)c(-c4cccc5c4[C@H]4C[C@H]4C5)ncc23)C[C@@H]1CC#N [Example 69]  1.8 nM
8. C=CC(=O)N1CCN(c2nc(OC[C@@H]3CCCN3C)nc3c(F)c(-c4cccc5c4[C@H]4C[C@H]4C5)ncc23)C[C@@H]1CC#N [Example 56, 2-((S)-1-acryloyl-4-(8-fluoro-2-(((S)-1-methylpyrrolidin-2-yl)methoxy)-7-((1aS,6aS)-1,1a,6,6a-tetrahydrocyclopropa[a]inden-2-yl)pyridino[4,3-d]pyrimidin-4-yl)piperazin-2-yl)acetonitrile]  2.2 nM
9. C=CC(=O)N1CCN(c2nc(OCC34CCCN3CCC4)nc3c(F)c(-c4cccc5c4[C@H]4C[C@H]4C5)ncc23)C[C@@H]1CC#N [Example 63, 2-((S)-1-acryloyl-4-(8-fluoro-2-((tetrahydro-1H-pyrrolizin-7a(5H)-yl)methoxy)-7-((1aS,6aS)-1,1a,6,6a-tetrahydrocyclopropa[a]inden-2-yl)pyridino[4,3-d]pyrimidin-4-yl)piperazin-2-yl)acetonitrile]  2.2 nM
10. C=CC(=O)N1CCN(c2nc(OCC34CCCN3CCC4)nc3c(F)c(-c4cccc5c4[C@@H]4C[C@@H]4C5)ncc23)C[C@@H]1CC#N [Example 65]  3.2 nM
11. C=C(F)C(=O)N1CCN(c2nc(OC[C@@]34CCCN3C[C@H](F)C4)nc3c(F)c(-c4cccc5c4[C@H]4C[C@H]4C5)ncc23)C[C@@H]1CC#N [Example 70]  7 nM
12. C=C(F)C(=O)N1CCN(c2nc(OCC34CCCN3CCC4)nc3c(F)c(-c4cccc5c4C4CC4C5)ncc23)C[C@@H]1CC#N (stereo partly drawn) [Example 62, 2-((2S)-4-(8-fluoro-2-((tetrahydro-1H-pyrrolizin-7a(5H)-yl)methoxy)-7-(1,1a,6,6a-tetrahydrocyclopropa[a]inden-2-yl)pyridino[4,3-d]pyrimidin-4-yl)-1-(2-fluoroacryloyl)piperazin-2-yl)acetonitrile]  8 nM
13. C=C(F)C(=O)N1CCN(c2nc(OC[C@@]34CCCN3C[C@H](F)C4)nc3c(F)c(-c4cccc5c4[C@@H]4C[C@@H]4C5)ncc23)C[C@@H]1CC#N [Example 72]  8 nM
14. C=C(F)C(=O)N1CCN(c2nc(OCC34CCCN3CCC4)nc3c(F)c(-c4cccc5c4[C@@H]4C[C@@H]4C5)ncc23)C[C@@H]1CC#N [Example 66, 2-((S)-4-(8-fluoro-2-((tetrahydro-1H-pyrrolizin-7a(5H)-yl)methoxy)-7-((1aR,6aR)-1,1a,6,6a-tetrahydrocyclopropa[a]inden-2-yl)pyridino[4,3-d]pyrimidin-4-yl)-1-(2-fluoroacryloyl)piperazin-2-yl)acetonitrile]  9 nM
15. C=C(F)C(=O)N1CCN(c2nc(OCC34CCCN3CCC4)nc3c(F)c(-c4cccc5c4[C@H]4C[C@H]4C5)ncc23)C[C@@H]1CC#N [Example 64, 2-((S)-4-(8-fluoro-2-((tetrahydro-1H-pyrrolizin-7a(5H)-yl)methoxy)-7-((1aS,6aS)-1,1a,6,6a-tetrahydrocyclopropa[a]inden-2-yl)pyridino[4,3-d]pyrimidin-4-yl)-1-(2-fluoroacryloyl)piperazin-2-yl)acetonitrile]  10 nM
16. C=CC(=O)N1CCN(c2nc(OC[C@@H]3CCCN3C)nc3c(F)c(-c4ccc(F)c5c4SCCC5)ncc23)C[C@@H]1CC#N [Example 54, 2-((S)-1-acryloyl-4-(8-fluoro-7-(5-fluorothiochroman-8-yl)-2-(((S)-1-methylpyrrolidin-2-yl)methoxy)pyridino[4,3-d]pyrimidin-4-yl)piperazin-2-yl)acetonitrile]  70 nM
17. C=CC(=O)N1CCN(c2nc(OC[C@@H]3CCCN3C)nc3c(F)c(-c4cccc5c4CC(C)C5)ncc23)C[C@@H]1CC#N (stereo partly drawn) [Example 60, 2-((2S)-1-acryloyl-4-(8-fluoro-7-(2-methyl-2,3-dihydro-1H-inden-4-yl)-2-(((S)-1-methylpyrrolidin-2-yl)methoxy)pyridino[4,3-d]pyrimidin-4-yl)piperazin-2-yl)acetonitrile]  70 nM
18. C=CC(=O)N1CCN(c2nc(OC[C@@H]3CCCN3C)nc3cc(-c4cccc5c4CCCC5)c(Cl)cc23)C[C@@H]1CC#N [Example 75, 2-((S)-1-acryloyl-4-(6-chloro-2-(((S)-1-methylpyrrolidin-2-yl)methoxy)-7-(5,6,7,8-tetrahydronaphthalen-1-yl)quinazolin-4-yl)piperazin-2-yl)acetonitrile]  86 nM
19. C=C(F)C(=O)N1CCN(c2nc(OC[C@@H]3CCCN3C)nc3c(F)c(-c4cccc5c4[C@@H]4C[C@@H]4C5)ncc23)C[C@@H]1CC#N [Example 59, 2-((S)-4-(8-fluoro-2-(((S)-1-methylpyrrolidin-2-yl)methoxy)-7-((1aR,6aR)-1,1a,6,6a-tetrahydrocyclopropa[a]inden-2-yl)pyridino[4,3-d]pyrimidin-4-yl)-1-(2-fluoroacryloyl)piperazin-2-yl)acetonitrile]  140 nM
20. C=C(F)C(=O)N1CCN(c2nc(OC[C@@H]3CCCN3C)nc3c(F)c(-c4cccc5c4[C@H]4C[C@H]4C5)ncc23)C[C@@H]1CC#N [Example 57, 2-((S)-4-(8-fluoro-2-(((S)-1-methylpyrrolidin-2-yl)methoxy)-7-((1aS,6aS)-1,1a,6,6a-tetrahydrocyclopropa[a]inden-2-yl)pyridino[4,3-d]pyrimidin-4-yl)-1-(2-fluoroacryloyl)piperazin-2-yl)acetonitrile]  150 nM
21. C=C(F)C(=O)N1CCN(c2nc(OC[C@@H]3CCCN3C)nc3c(F)c(-c4cccc5c4C4CC4C5)ncc23)C[C@@H]1CC#N (stereo partly drawn) [Example 55, 2-((2S)-4-(8-fluoro-2-(((S)-1-methylpyrrolidin-2-yl)methoxy)-7-(1,1a,6,6a-tetrahydrocyclopropa[a]inden-2-yl)pyridino[4,3-d]pyrimidin-4-yl)-1-(2-fluoroacryloyl)piperazin-2-yl)acetonitrile]  160 nM
22. C=CC(=O)N1CCN(c2nc(OC[C@@H]3CCCN3C)nc3c(F)c(-c4cccc5c4CCCC5)c(Cl)cc23)CC1 [Example 76, 1-(4-(6-chloro-8-fluoro-2-(((S)-1-methylpyrrolidin-2-yl)methoxy)-7-(5,6,7,8-tetrahydronaphthalen-1-yl)quinazolin-4-yl)piperazin-1-yl)prop-2-en-1-one]  160 nM
23. C=C(F)C(=O)N1CCN(c2nc(OC[C@@H]3CCCN3C)nc3c(F)c(-c4cccc5c4SCCC5)ncc23)C[C@@H]1CC#N [Example 53, 2-((S)-4-(8-fluoro-2-(((S)-1-methylpyrrolidin-2-yl)methoxy)-7-(thiochroman-8-yl)pyridino[4,3-d]pyrimidin-4-yl)-1-(2-fluoroacryloyl)piperazin-2-yl)acetonitrile]  180 nM
